“Also recorded” adds a separate entry of the source.
Tests used:
HBV genotype A [1] = assay: HBV replication inhibition in Huh7 cells, Southern blot, genotype A; type: cell-based, Hepatitis B virus; details: for Inhibition of HBV replication, RNA:DNA heteroduplex signature: 10 μM, Huh7 cells, Southern blot
Description: Huh7 cells were maintained in Dulbecco's modified Eagle's medium with 10% fetal bovine serum at 37° C. in 5% CO2. Cells were seeded into 60 mm dishes and transfected at 70% confluency with 2.6 μg of plasmids using TransIT-LT1 (Mirus, Inc.). Test compounds were added the morning following transfection at 10 or 50 μM, and fresh medium containing the compounds was provided every 1-2 days. Four or five days post-transfection HBV cores were isolated by lysis of the cells in 10 mM Tris pH 7.5, 1 mM EDTA, 0.25% NP40, 50 mM NaCl, and 8% sucrose followed by sedimentation through a 30% sucrose cushion as described (Travis, et al., 1998). Viral DNAs were isolated from cytoplasmic core particle preparations by proteinase K digestion followed by phenol/chloroform extraction as described (Gong et al., 2001). Duplicate aliquots of the nucleic acids were treated with 2 U E. coli DNAse-free RNAseH (Invitrogen) at 37° C. for 30 min. or were mock treated. The nucleic acid samples were resolved by electrophoresis on 1.2% agarose gels and detected by Southern blotting with ^32P-labeled HBV DNA as a probe.
Finally, the inventors asked whether HBV RNAseH inhibitors could block HBV replication in culture. Huh7 cells were transfected with genomic expression vectors for HBV genotype A or D isolates, the cells were treated with 10 or 50 μM compounds, and viral nucleic acids were isolated from intracellular HBV capsids after four days. Replicate nucleic acid aliquots were mock treated or treated with DNAse-free E. coli RNAseH to destroy RNA:DNA heteroduplexes, and then HBV DNAs were detected by Southern blotting. The signature of RNAseH inhibition is accumulation of RNA:DNA heteroduplexes that migrate as double-stranded species without exogenous RNAseH treatment but as faster-migrating single-stranded DNAs following RNAseH treatment.
Inhibition of HBV replication by βTJ was measured as recently described (Tavis et al., 2013). Briefly, Huh7 cells were transfected with HBV genomic expression vectors using TransIT-LT1 (Mirus, Inc.), βTJ was added 12-16 hrs post-transfection at the indicated concentrations, and fresh medium containing the compounds was provided two days later. HBV core particles were isolated four days post-transfection by detergent lysis of the cells and sedimentation through a sucrose cushion as described (Tavis et al., 1998). Viral DNAs were isolated from cytoplasmic core particle preparations by proteinase K digestion followed by phenol/chloroform extraction as described (Gong et al., 2001). Duplicate aliquots of each nucleic acid preparation were treated with 2 U E. coli DNAse-free RNAseH (Invitrogen) at 37° C. for 30 min. or were mock treated. The nucleic acids were resolved by electrophoresis on 1.2% agarose gels and HBV DNAs were detected by Southern blotting with ^32P-labeled double-stranded HBV DNA as a probe to detect both the plus- and minus-polarity HBV DNA strands. HBV core protein (HBc) and β-actin in the cytoplasmic lysates were monitored by western analysis using an anti-HBc antibody (HBP-023-9, Austral Biologicals) and a mouse […] monoclonal antibody from ZSGB-BIO Co., Ltd., respectively. HBV surface antigen (HBs) proteins were quantified by ELISA (Shanghai Kehua Biotech).

Huh7 cells = assay: MTS cytotoxicity assay in Huh7 cells; type: cell-based, human
Description: Toxicity of βTJ in Huh7 cells was determined with 3-(4,5-dimethylthiazol-2-yl)-5-β-carboxymethoxyphenyl)-2-(4-sulfophenyl)-2H-tetrazolium (MTS) assays that measures mitochondrial dysfunction employing the Cell Titre 96 aqueous nonradioactive cell proliferation assay (Promega), and with the CytoTox-Glo assay (Promega) that reflects cellular integrity. Huh7 and HepG2 cells (1×10^4) were plated in 96-well tissue culture plates, medium containing βTJ at the indicated concentrations was added the next day, the medium was replaced with fresh medium containing βTJ after two days, and after four days the MTS or CytoTox-Glo assays were conducted according to the manufacturer's instructions.

HBV genotype A [2] = assay: Plus-polarity preferential real-time PCR of HBV DNA, Huh7 cells; type: cell-based, Hepatitis B virus
Description: Plus-polarity preferential quantitative TaqMan PCR for the HBV DNA was conducted employing forward primer […] (SEQ ID NO: 13), reverse primer […] (SEQ ID NO:14), and probe 5′-6Fam-[…]-Zen-[…]-IabkFQ-3′ (5′-6Fam-SEQ ID NO:15-Zen-SEQ ID NO: 16-IabkFQ-3′) (Integrated DNA Technologies). PCR was conducted on purified HBV capsid-derived nucleic acids for 40 cycles of 95° C. for 15 sec. and 65° C. for 1 min. employing the TaqMan universal PCR master mix (Applied Biosystems). Results were standardized against serial dilutions of cloned HBV DNA. The EC50 was estimated by linear regression of the real-time PCR data.
The HBV plus-polarity DNA strand was measured to quantify the effects of βTJ on HBV replication because plus-polarity DNA cannot be made without RNAseH activity. Real-time PCR primers flanking the gap in the HBV minus-polarity DNA were designed that preferentially measure plus-polarity DNA because amplification across the gap in the minus-polarity DNA is inefficient. […] Above 10 μM, βTJ suppressed HBV plus-polarity DNA levels to below the assay background of approximately 14% that was determined with the D702A RNAseH-deficient genome.

Cc1c2cc(O)c(=O)cc-2oc2cc(O)c(O)cc12 [Compound 8]
Inhibition of HBV replication, RNA:DNA heteroduplex signature (HBV genotype A [1]): did not affect HBV replication

NCc1ccc(-c2ccc(Cc3cc(=O)n(O)c4ncccc34)cc2)cc1 [Compound 12, napthyridinone]
Estimated CC50, MTS assay, Huh7 cells (Huh7 cells): low μM range
Inhibition of HBV replication, RNA:DNA heteroduplex signature (HBV genotype A [1]): blocked production of the slowest-migrating double-stranded forms; also recorded: inhibited HBV replication in cell culture; also recorded: inhibited production of the slowest-migrating (mature) viral DNA
Plus-strand DNA accumulation (HBV genotype A [2]; 10 μM, data not shown): 7.3 % of the DMSO treated control

COc1ccc2ccccc2c1C=NNC(=O)c1cc(O)c(O)c(O)c1 [Compound 14]
Inhibition of HBV replication (HBV genotype A [1]; 25 μM): inhibited HBV replication in one experiment

[N-]=[N+]=NCc1cccc(C(=O)CC(=O)C(=O)O)c1 [Compound 40]
Inhibition of HBV replication (HBV genotype A [1]; 50 μM): inhibited replication in another experiment

CC(C)c1ccc(O)c(=O)c(O)c1 [Compound 46, beta-thujaplicinol]
CC50 (Huh7 cells; four days): 10.1 ± 1.7 µM
Inhibition of HBV replication, RNA:DNA heteroduplex signature (HBV genotype A [1]): inhibited HBV replication in cell culture; also recorded: inhibited production of the slowest-migrating (mature) viral DNA
Accumulation of RC DNA and RNA:DNA heteroduplexes (HBV genotype A [1]; 2.5, 10, 15, and 20 μM, four days): suppressed accumulation of the RC DNA
Total amount of viral DNA detected (HBV genotype A [1]; 15 and 20 μM): suppressed
HBV plus-polarity DNA level (HBV genotype A [2]; above 10 μM, assay background approximately 14%): < 14%
EC50 (HBV genotype A [2]; read-out: 50% effective concentration (EC50), genotype A isolate in Huh7 cells): ~5 µM
